Results on one molecule are retold here after article PMC5073322, “Novel Natural Product-like Caged Xanthones Bearing a Carbamate Moiety Exhibit Antitumor Potency and Anti-Angiogenesis Activity In vivo” (Scientific Reports, 2016).

A short description of one data set: Water solubility by HPLC. Format: physicochemical. As to conditions: deionized water, stirred overnight, HPLC 290 nm. The source says:
The physicochemical characteristics of compounds directly determine their potential drug-like properties. Assessing a compound’s physicochemical properties before performing in vivo evaluations can guide further studies and minimize the time and cost associated with drug discovery. Therefore, parallel to the in vivo study, these solubilities of these compounds in water were experimentally measured using high-performance liquid chromatography (HPLC). Based on the results of full wave scanning, 290 nm was chosen as the maximum absorption wavelength for HPLC detection.
A HPLC system with an ultraviolet (UV) detector was used to detect the solubility of the compounds. The optimal wavelength was 290 nm. Ethanol/water (85:15) was an efficient eluent at a flow rate of 0.5 mL/min. The compounds were stirred in deionized water overnight to maximize the retention of the compounds in solution. Then, the solutions were filtered and the supernatant was used as a fluid sample for HPLC detection. The permeability (Pe) of some of the compounds was tested with the help of a standard PAMPA (pION), as previously reported. PAMPA was performed on a PAMPA Explorer instrument (pION, Inc., Woburn, MA) with the PAMPA Explorer command software (Version 3.7.4.1). The compounds were diluted to 10 mM with the system solution buffer (pH 7.4). Then, 150 μL of the diluted compound solution was transferred to a UV plate, and the UV spectrum was collected and used as a reference. Then, paint the membrane with 5 μL of gastrointestinal tract (GIT) lipid. The acceptor chamber was filled with 200 μL of acceptor solution buffer, and the donor chamber was filled with 200 μL of diluted compound solution. The PAMPA sandwich was assembled and left at 25 °C for 4 h. The UV spectra (240–500 nm) from the donor and the acceptor were collected. The permeability coefficient was calculated with the PAMPA Explorer Command software (Version 3.7.4.1) based on the area under the curve (AUC) of the reference plate, the donor plate, and the acceptor plate. The permeability coefficient of the compound was tested for four times, and the data are shown as the average values. Ketoprofen (4.5×10^−6 cm/s) and propranolol (112.8×10^−6 cm/s) were used as the standards in this assay.

A further data set deals with HepG2 cells. Nature of the data set: Annexin V/PI apoptosis, flow cytometry. Format: cell-based, human. As to conditions: 48 h. As for the experimental part: First, the influence of 8n on the cytoskeleton was evaluated using morphological observations. After treatment with 8n, the morphological features of tumour cells changed greatly, and the changed characteristics included the rounding-up of cells, rough membrane surfaces, and more spherical or ovoid cytoplasmic fragments (Fig. 6A). However, the control group, which lacked compound 8n, had good growth. Next, we examined whether the morphological changes were the result of apoptosis induced by compound 8n using DAPI staining and FACScan.
Figure 6 (A) Morphological changes in cancer cells and nuclei. (B) 8n induced apoptosis in HepG2 cells. […] The cells were then were stained with DAPI and observed by fluorescence microscopy. […] (D) The percentages of early apoptotic and total apoptotic cells were quantified using flow cytometry. *p < 0.05; **p < 0.01. […] The expression levels of Caspase-3, Cleaved Caspase-3, Bax, Bcl-2, PARP and cleaved PARP were measured by Western blotting. […]
HepG2 cells were grown on glass coverslips and fixed in 4% paraformaldehyde. […] 8n-induced apoptosis was assessed using a fluorescence microscope and the Annexin V-FITC apoptosis Detection Kit (Beyotime Biotechnology, Shanghai, China) according to the manufacturer’s instructions. […] Stained cells were analysed with a FACScan analyser (argon laser, Becton Dickinson, USA). All data were analysed by using the FlowJo software.

The subject of data set [1] is zebrafish embryos (intersegmental vessels). The experiment in a line: In vivo fluorescent zebrafish angiogenesis assay. To be noted: 24 h. As for the experimental part:
Zebrafish has been proposed as a valid alternative animal model for investigating angiogenesis. The effect of 8n on embryonic angiogenesis in zebrafish was evaluated.
Transgenic zebrafish (VEGFR2: GFP) embryos were supplied using the drug screening platform of the Shandong Academy of Sciences Institute; they were grown and maintained according to the same protocols. The screen was carried out in 24-well plates. Compounds were prepared initially as a 10 mg/mL stock solution in dimethyl sulfoxide (DMSO). The stock solution was diluted to the relevant assay concentration with fish water, and 0.5% DMSO served as a vehicle control. The embryos were distributed in 24-well plates, with 10 embryos placed in each well. Then, a diluted solution of each compound was added. The embryos were exposed to the compound solution and incubated at 28.5 °C. After 24 h, the zebrafish were anesthetized with 0.01% tricaine and imaged under a fluorescence microscope (Olympus, Inc.) equipped with a SZX16 microscope and a DP2-BSW digital camera (Olympus, Inc.). The animal experiments were performed in accordance with the approval of the Chinese Academy of Medical Sciences and the Biology Institute of Shandong Academy of Sciences. All studies were performed in accordance with the approved guidelines from the China Zebrafish Resource Center with the approved protocol number of 2012CB944504.

For another data set, the system named is HepG2. Nature of the data set: MTT antiproliferative assay, HepG2. As to conditions: read-out: IC50 HepG2; MTT, 72 h.

As to `CC(C)=CCC12OC(C)(C)C3CC(C=C4C(=O)c5c(OC(=O)N6CCC(N7CCCCC7)CC6)cccc5OC431)C2=O` (stereo not drawn) [Compound 8n], the “S, water solubility” value in “Water solubility by HPLC” is listed as over 40 mM. Further, the apoptotic cells result with HepG2 cells (0.3 μM) was “more than 11.89%”; in the data set on HepG2 cells (1 μM), over 46.3%. Moreover, the “formation of intersegmental vessels” value in data set [1] (10 μg/ml or 5 μg/ml) is given as “considerably inhibited”; in data set [1] (50 μg/ml), “completely blocked”. In addition, in the data set on HepG2, the IC50 is 1320 ± 450 nM.
